Experimental data: ChEMBL document CHEMBL1129852, “Peptidyl -keto thiazole as potent thrombin inhibitors” (Bioorg Med Chem Lett, 1997)

Tests used:
[1] = Relative inhibition of trypsin and thrombin; parameters: reference not given here
Serine protease 1 = target: T1, Serine protease 1 (Bos taurus, UniProt P00760); test: Inhibition of trypsin
T1 sequence (P00760 whole entry): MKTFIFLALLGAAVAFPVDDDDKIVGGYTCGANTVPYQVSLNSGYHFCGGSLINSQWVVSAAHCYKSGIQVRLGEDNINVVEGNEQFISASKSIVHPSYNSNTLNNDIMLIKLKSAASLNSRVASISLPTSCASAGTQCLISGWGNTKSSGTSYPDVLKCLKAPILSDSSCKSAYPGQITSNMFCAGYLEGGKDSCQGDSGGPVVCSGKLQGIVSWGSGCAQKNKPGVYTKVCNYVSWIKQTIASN

Prothrombin = Prothrombin (Homo sapiens, UniProt P00734); test: Inhibition of thrombin
[2] = The compound was tested for the inhibitory activity against elastase enzyme; assay type: functional; conditions: Homo sapiens
Prolyl endopeptidase = Prolyl endopeptidase (Sus scrofa, UniProt P23687); test: The compound was tested for the inhibitory activity against prolyl endo peptidase(PEP) enzyme
Prolyl endopeptidase, sequence (P23687 whole entry): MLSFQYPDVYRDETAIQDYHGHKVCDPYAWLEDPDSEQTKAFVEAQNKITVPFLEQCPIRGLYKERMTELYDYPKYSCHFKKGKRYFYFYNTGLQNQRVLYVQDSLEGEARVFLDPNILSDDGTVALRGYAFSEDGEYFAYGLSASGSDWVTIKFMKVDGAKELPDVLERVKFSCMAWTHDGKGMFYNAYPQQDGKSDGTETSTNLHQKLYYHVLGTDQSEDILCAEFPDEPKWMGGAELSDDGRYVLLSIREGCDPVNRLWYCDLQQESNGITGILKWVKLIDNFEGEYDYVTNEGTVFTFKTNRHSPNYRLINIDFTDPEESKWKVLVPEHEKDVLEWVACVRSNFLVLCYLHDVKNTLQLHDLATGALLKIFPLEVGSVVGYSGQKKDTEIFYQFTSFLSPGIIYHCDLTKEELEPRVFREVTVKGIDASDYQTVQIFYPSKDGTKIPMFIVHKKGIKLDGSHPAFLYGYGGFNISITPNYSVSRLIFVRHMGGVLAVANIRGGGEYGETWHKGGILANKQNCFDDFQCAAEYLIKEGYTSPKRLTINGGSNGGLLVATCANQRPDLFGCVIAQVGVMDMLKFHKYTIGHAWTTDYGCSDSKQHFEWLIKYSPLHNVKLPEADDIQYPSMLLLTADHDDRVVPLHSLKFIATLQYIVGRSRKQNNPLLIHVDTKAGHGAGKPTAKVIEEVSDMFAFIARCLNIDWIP

NC(N)=NCCC[C@@H](NC(=O)[C@@H]1CCCCN1C(=O)[C@H](N)Cc1ccccc1)C(=O)c1nccs1
Ratio [1]: 56

NCCCCC[C@H](NC(=O)[C@@H]1CCCN1C(=O)[C@H](N)Cc1ccccc1)C(=O)c1nccs1
Ratio [1]: 1.1 | IC50 (Serine protease 1): 16 µM | IC50 (Prothrombin): 14 µM

CC(=O)N[C@H](Cc1ccccc1)C(=O)N1CCC[C@H]1C(=O)N[C@H](CCCN=C(N)N)C(=O)c1nccs1
Ratio [1]: 0.1

C[C@H](NC(=O)[C@@H]1CCCN1C(=O)CCCc1ccccc1)C(=O)c1nccs1
IC50 [2]: > 1000 µM | IC50 (Serine protease 1): > 1000 µM | IC50 (Prothrombin): > 1000 µM | IC50 (Prolyl endopeptidase): 0.005 µM

CC(=O)N[C@H](Cc1ccccc1)C(=O)N1CCC[C@H]1C(=O)N[C@H](CCCNC(=N)N)C(=O)c1nccs1
IC50 (Serine protease 1): 0.23 µM | IC50 (Prothrombin): 2.3 µM

NC(N)=NCCC[C@H](NC(=O)[C@@H]1CCN1C(=O)[C@H](N)Cc1ccccc1)C(=O)c1nccs1
Ratio [1]: 3

CC(C)[C@H](NC(=O)[C@@H]1CCCN1C(=O)CCCc1ccccc1)C(=O)c1nccs1
IC50 [2]: > 1000 µM | IC50 (Serine protease 1): > 1000 µM | IC50 (Prothrombin): > 1000 µM | IC50 (Prolyl endopeptidase): 7.7 µM

NCCCC[C@H](NC(=O)[C@@H]1CCCN1C(=O)CCCc1ccccc1)C(=O)c1nccs1
IC50 (Serine protease 1): 2.4 µM | IC50 (Prothrombin): 46 µM | IC50 (Prolyl endopeptidase): 7.8 µM

N=C(N)NCCC[C@@H](NC(=O)[C@@H]1CCCN1C(=O)[C@@H](Cc1ccccc1)NC(=O)OCc1ccccc1)C(=O)c1nccs1
Ratio [1]: 0.8 | IC50 (Serine protease 1): 0.0016 µM | IC50 (Prothrombin): 0.002 µM

N=C(N)NCCC[C@H](NC(=O)[C@@H]1CCN1C(=O)[C@H](N)Cc1ccccc1)C(=O)c1nccs1
IC50 (Serine protease 1): 0.009 µM | IC50 (Prothrombin): 0.003 µM

NCCCC[C@H](NC(=O)[C@@H]1CCCN1C(=O)[C@H](N)Cc1ccccc1)C(=O)c1nccs1
Ratio [1]: 4.6 | IC50 (Serine protease 1): 1.2 µM | IC50 (Prothrombin): 0.26 µM

NC(N)=NCCC[C@H](NC(=O)[C@@H]1CCCN1C(=O)[C@H](N)Cc1ccccc1)C(=O)c1nccs1
Ratio [1]: 2.8 | IC50 (Serine protease 1): 0.0042 µM | IC50 (Prothrombin): 0.0015 µM

N=C(N)NCCC[C@@H](NC(=O)[C@@H]1CCCN1C(=O)CCc1ccccc1)C(=O)c1nccs1
Ratio [1]: 0.3 | IC50 (Serine protease 1): 0.23 µM | IC50 (Prothrombin): 0.82 µM

N=C(N)NCCC[C@@H](NC(=O)[C@@H]1CCCCN1C(=O)[C@H](N)Cc1ccccc1)C(=O)c1nccs1
IC50 (Prothrombin): 0.73 µM

O=C(c1nccs1)[C@H]1CCCN1C(=O)[C@@H]1CCCN1C(=O)CCCc1ccccc1
IC50 [2]: > 1000 µM | IC50 (Serine protease 1): > 1000 µM | IC50 (Prothrombin): > 1000 µM | IC50 (Prolyl endopeptidase): 0.0044 µM

CC(C)[C@@H](NC(=O)[C@H](N)Cc1ccccc1)C(=O)N[C@@H](CCCNC(=N)N)C(=O)c1nccs1
IC50 (Serine protease 1): 0.18 µM | IC50 (Prothrombin): 0.0086 µM

CC(C)[C@@H](NC(=O)[C@H](N)Cc1ccccc1)C(=O)N[C@@H](CCCN=C(N)N)C(=O)c1nccs1
Ratio [1]: 21

N=C(N)NCCC[C@H](NC(=O)[C@@H]1CCCCN1C(=O)[C@H](N)Cc1ccccc1)C(=O)c1nccs1
IC50 (Serine protease 1): 41 µM

N=C(N)NCCC[C@H](NC(=O)[C@@H]1CCCN1C(=O)CCCc1ccccc1)C(=O)c1nccs1
IC50 [2]: > 1000 µM | IC50 (Serine protease 1): 0.23 µM | IC50 (Prothrombin): 2 µM | IC50 (Prolyl endopeptidase): 28 µM
